Measured values published in US20260022142A1, “MACROCYCLIC IMMUNOMODULATORS” (Bristol-Myers Squibb Company, priority 2022, published 2026).
Bridge positions count the residues as written; N and C are the ends. Square brackets hold non-standard residues; d marks the D form. Peptide text beside a SMILES is read from it. * marks the point of attachment. ξ: configuration not given here. Bip = N[C@@H](Cc1ccc(-c2ccccc2)cc1)C(=O)O; Phe(3-Me) = Cc1cccc(C[C@H](N)C(=O)O)c1; Cha = N[C@@H](CC1CCCCC1)C(=O)O; Cit = NC(=O)NCCC[C@H](N)C(=O)O; Carboxymethyl = O=C(O)C*; Orn = NCCC[C@H](N)C(=O)O; Aun = NCCCCCCCCCCC(=O)O; Dab = NCC[C@H](N)C(=O)O; Dap = NC[C@H](N)C(=O)O; AEEA = NCCOCCOCC(=O)O; ξC = NC(CS)C(=O)O

Biological target: T1, PD-1/PD-L1 interaction (PE-labeled human PD-L1-Ig binding to Jurkat cell line over-expressing human PD-1) (Homo sapiens, UniProt Q15116)
T1 construct: expressed in transfected cells; host or cells: Jurkat
Experiment: Jurkat-PD-1 Cell Binding High-Content Screening Assay (CBA)
Type: cell-based
Conditions: Jurkat cell line over-expressing human PD-1; PE-labeled PD-L1-Ig 20 nM final; read-out: Jurkat hPD1-PDL1 IC50
How it was run: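 Jurkat cells over-expressing human PD-1 (8×10^3 per well, DMEM/10% FCS) preincubated with compound 2 h at 37° C, then PE-labeled human PD-L1-Ig (20 nM final) added for 1 h. Cells fixed with paraformaldehyde, Hoechst-stained, and bound fluorescence quantified by high-content imaging.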

T1 sequence (Q15116 25-288): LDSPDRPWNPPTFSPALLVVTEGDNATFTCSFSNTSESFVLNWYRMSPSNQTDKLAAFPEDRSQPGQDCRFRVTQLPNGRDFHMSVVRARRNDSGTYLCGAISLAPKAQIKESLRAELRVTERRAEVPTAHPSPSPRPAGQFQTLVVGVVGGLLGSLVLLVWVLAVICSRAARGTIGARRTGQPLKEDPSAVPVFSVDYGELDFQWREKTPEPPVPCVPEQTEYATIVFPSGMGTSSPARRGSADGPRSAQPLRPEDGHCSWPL

SMILES	IC50 [µM]
CC[C@H](C)[C@@H]1NC(=O)[C@H](Cc2ccc(-c3ccccc3)cc2)NC(=O)[C@H](C(C)C)NC(=O)[C@H](Cc2cccc(C)c2)NC(=O)[C@H](CC(=O)O)NC(=O)[C@H](Cc2ccc(OCC(=O)O)cc2)NC(=O)[C@H](CN)NC(=O)CSC[C@@H](C(=O)N[C@@H](CCCCN)C(=O)NCCCCCCCCCCC(=O)O)NC(=O)[C@H](CN)NC(=O)[C@H](C(C)C)NC(=O)[C@H](CC2CCCCC2)NC(=O)[C@H](CCN)NC(=O)[C@@H](CC(C)C)NC(=O)[C@H](CCCN)NC1=O [Compound 2638] ({CH2CO}-[Dap]Y(Carboxymethyl)D[Phe(3-Me)]V[Bip]I[Orn][dL][Dab][Cha]V[Dap]CK[Aun]-OH; thioether N-14)	0.019
CC[C@H](C)[C@@H]1NC(=O)[C@H](Cc2ccc(-c3ccccc3)cc2)NC(=O)[C@H](C(C)C)NC(=O)[C@H](Cc2cccc(C)c2)NC(=O)[C@H](CC(=O)O)NC(=O)[C@H](Cc2ccc(OCC(=O)O)cc2)NC(=O)[C@H](CN)NC(=O)CSC[C@@H](C(=O)N[C@@H](CCCCN)C(=O)NCCCCCCCCCCC(=O)O)NC(=O)[C@H](CCCN)NC(=O)[C@H](C(C)C)NC(=O)[C@H](CC2CCCCC2)NC(=O)[C@H](CCN)NC(=O)[C@@H](CC(C)C)NC(=O)[C@H](CCCN)NC1=O [Compound 2640] ({CH2CO}-[Dap]Y(Carboxymethyl)D[Phe(3-Me)]V[Bip]I[Orn][dL][Dab][Cha]V[Orn]CK[Aun]-OH; thioether N-14)	0.0081
Cc1cccc(C[C@@H]2NC(=O)[C@H](CC(=O)O)NC(=O)[C@H](Cc3ccc(OCC(=O)O)cc3)NC(=O)[C@H](CN)NC(=O)CSC[C@@H](C(=O)N[C@@H](CCCCN)C(=O)NCCCCCCCCCCC(=O)O)NC(=O)[C@H](CCCNC(N)=O)NC(=O)[C@H](C(C)C)NC(=O)[C@H](CC3CCCCC3)NC(=O)[C@H](CCN)NC(=O)[C@@H](CC(C)C)NC(=O)[C@H](CCCN)NC(=O)[C@H](CCCNC(N)=O)NC(=O)[C@H](Cc3ccc(-c4ccccc4)cc3)NC(=O)[C@H](C(C)C)NC2=O)c1 [Compound 2641] ({CH2CO}-[Dap]Y(Carboxymethyl)D[Phe(3-Me)]V[Bip][Cit][Orn][dL][Dab][Cha]V[Cit]CK[Aun]-OH; thioether N-14)	0.0277
CC(C)C[C@H]1NC(=O)[C@H](CCCN)NC(=O)[C@H](CCCNC(N)=O)NC(=O)[C@H](Cc2ccc(-c3ccccc3)cc2)NC(=O)[C@H](C(C)C)NC(=O)[C@H](Cc2c[nH]c3ccccc23)NC(=O)[C@H](CC(=O)O)NC(=O)[C@H](Cc2ccc(OCC(=O)O)cc2)NC(=O)[C@H](CN)NC(=O)CSCC(C(=O)NCCOCCOCC(=O)NCCCCCCCCCCC(=O)O)NC(=O)[C@H](CCCCN)NC(=O)[C@H](C(C)C)NC(=O)[C@H](CC2CCCCC2)NC(=O)[C@H](CCN)NC1=O (stereo partly drawn) [Compound 2643] ({CH2CO}-[Dap]Y(Carboxymethyl)DWV[Bip][Cit][Orn][dL][Dab][Cha]VK[ξC][AEEA][Aun]-OH; thioether N-14)	0.0072
CC[C@H](C)[C@@H]1NC(=O)[C@H](Cc2ccc(-c3ccccc3)cc2)NC(=O)[C@H](C(C)C)NC(=O)[C@H](Cc2c[nH]c3ccccc23)NC(=O)[C@H](CC(=O)O)NC(=O)[C@H](Cc2ccc(OCC(=O)O)cc2)NC(=O)[C@H](CN)NC(=O)CSCC(C(=O)NCCOCCOCC(=O)NCCCCCCCCCCC(=O)O)NC(=O)[C@H](CCCCN)NC(=O)[C@H](C(C)C)NC(=O)[C@H](CC2CCCCC2)NC(=O)[C@H](CCN)NC(=O)[C@@H](CC(C)C)NC(=O)[C@H](CCCN)NC1=O (stereo partly drawn) [Compound 2644] ({CH2CO}-[Dap]Y(Carboxymethyl)DWV[Bip]I[Orn][dL][Dab][Cha]VK[ξC][AEEA][Aun]-OH; thioether N-14)	0.0094
Cc1cccc(C[C@@H]2NC(=O)[C@H](CC(=O)O)NC(=O)[C@H](Cc3ccc(OCC(=O)O)cc3)NC(=O)[C@H](CN)NC(=O)CSCC(C(=O)NCCOCCOCC(=O)NCCCCCCCCCCC(=O)O)NC(=O)[C@H](CN)NC(=O)[C@H](C(C)C)NC(=O)[C@H](CC3CCCCC3)NC(=O)[C@H](CCN)NC(=O)[C@@H](CC(C)C)NC(=O)[C@H](CCCN)NC(=O)[C@H](CCCNC(N)=O)NC(=O)[C@H](Cc3ccc(-c4ccccc4)cc3)NC(=O)[C@H](C(C)C)NC2=O)c1 (stereo partly drawn) [Compound 2645] ({CH2CO}-[Dap]Y(Carboxymethyl)D[Phe(3-Me)]V[Bip][Cit][Orn][dL][Dab][Cha]V[Dap][ξC][AEEA][Aun]-OH; thioether N-14)	0.0154
CC[C@H](C)[C@@H]1NC(=O)[C@H](Cc2ccc(-c3ccccc3)cc2)NC(=O)[C@H](C(C)C)NC(=O)[C@H](Cc2cccc(C)c2)NC(=O)[C@H](CC(=O)O)NC(=O)[C@H](Cc2ccc(OCC(=O)O)cc2)NC(=O)[C@H](CN)NC(=O)CSCC(C(=O)NCCOCCOCC(=O)NCCCCCCCCCCC(=O)O)NC(=O)[C@H](CN)NC(=O)[C@H](C(C)C)NC(=O)[C@H](CC2CCCCC2)NC(=O)[C@H](CCN)NC(=O)[C@@H](CC(C)C)NC(=O)[C@H](CCCN)NC1=O (stereo partly drawn) [Compound 2646] ({CH2CO}-[Dap]Y(Carboxymethyl)D[Phe(3-Me)]V[Bip]I[Orn][dL][Dab][Cha]V[Dap][ξC][AEEA][Aun]-OH; thioether N-14)	0.0132
Cc1cccc(C[C@@H]2NC(=O)[C@H](CC(=O)O)NC(=O)[C@H](Cc3ccc(OCC(=O)O)cc3)NC(=O)[C@H](CN)NC(=O)CSCC(C(=O)NCCOCCOCC(=O)NCCCCCCCCCCC(=O)O)NC(=O)[C@H](CCCN)NC(=O)[C@H](C(C)C)NC(=O)[C@H](CC3CCCCC3)NC(=O)[C@H](CCN)NC(=O)[C@@H](CC(C)C)NC(=O)[C@H](CCCN)NC(=O)[C@H](CCCNC(N)=O)NC(=O)[C@H](Cc3ccc(-c4ccccc4)cc3)NC(=O)[C@H](C(C)C)NC2=O)c1 (stereo partly drawn) [Compound 2647] ({CH2CO}-[Dap]Y(Carboxymethyl)D[Phe(3-Me)]V[Bip][Cit][Orn][dL][Dab][Cha]V[Orn][ξC][AEEA][Aun]-OH; thioether N-14)	0.0077
CC[C@H](C)[C@@H]1NC(=O)[C@H](Cc2ccc(-c3ccccc3)cc2)NC(=O)[C@H](C(C)C)NC(=O)[C@H](Cc2cccc(C)c2)NC(=O)[C@H](CC(=O)O)NC(=O)[C@H](Cc2ccc(OCC(=O)O)cc2)NC(=O)[C@H](CN)NC(=O)CSCC(C(=O)NCCOCCOCC(=O)NCCCCCCCCCCC(=O)O)NC(=O)[C@H](CCCN)NC(=O)[C@H](C(C)C)NC(=O)[C@H](CC2CCCCC2)NC(=O)[C@H](CCN)NC(=O)[C@@H](CC(C)C)NC(=O)[C@H](CCCN)NC1=O (stereo partly drawn) [Compound 2648] ({CH2CO}-[Dap]Y(Carboxymethyl)D[Phe(3-Me)]V[Bip]I[Orn][dL][Dab][Cha]V[Orn][ξC][AEEA][Aun]-OH; thioether N-14)	0.0089
Cc1cccc(C[C@@H]2NC(=O)[C@H](CC(=O)O)NC(=O)[C@H](Cc3ccc(OCC(=O)O)cc3)NC(=O)[C@H](CN)NC(=O)CSC[C@@H](C(=O)N[C@@H](CCCCN)C(=O)NCCOCCOCC(=O)NCCCCCCCCCCC(=O)O)NC(=O)[C@H](CN)NC(=O)[C@H](C(C)C)NC(=O)[C@H](CC3CCCCC3)NC(=O)[C@H](CCN)NC(=O)[C@@H](CC(C)C)NC(=O)[C@H](CCCN)NC(=O)[C@H](CCCNC(N)=O)NC(=O)[C@H](Cc3ccc(-c4ccccc4)cc3)NC(=O)[C@H](C(C)C)NC2=O)c1 [Compound 2649] ({CH2CO}-[Dap]Y(Carboxymethyl)D[Phe(3-Me)]V[Bip][Cit][Orn][dL][Dab][Cha]V[Dap]CK[AEEA][Aun]-OH; thioether N-14)	0.0111
